Laboratory results as given in patent US7488568B2, “Resist composition, method of forming resist pattern, compound and acid generator” (Tokyo Ohka Kogyo Co., Ltd., priority 2008, dated 2009).

Assay: Evaluation of solubility of acid generators in resist solvents (concentration at which completely dissolved)
Assay type: physicochemical
Details: for Solubility in EL (% by weight): ethyl lactate; for Solubility in PGME (% by weight): propylene glycol monomethyl ether; for Solubility in PGMEA (% by weight): propylene glycol monomethyl ether acetate
Protocol: With respect to each of the compounds, propylene glycol monomethyl ether acetate (PGMEA) solutions, propylene glycol monomethyl ether (PGME) solutions and ethyl lactate (EL) solutions of various concentrations were prepared. The prepared solutions were stirred to evaluate the concentration at which the acid generator was completely dissolved.

[1] = Table 1, concentration at which completely dissolved

| SMILES | Solubility in EL (% by weight) (Table 8) | Solubility in PGME (% by weight) (Table 8) | Solubility in PGMEA (% by weight) (Table 8) | Solubility in EL (% by weight) (Table 1) | Solubility in PGMEA (% by weight) (Table 1) | Solubility in PGME (% by weight) [1] |
| --- | --- | --- | --- | --- | --- | --- |
| c1ccc([S+](c2cccc3ccccc23)c2cccc3ccccc23)cc1 [(1)] | 5.0 | 5.0 % by weight | <2.0 % by weight | – | – | – |
| c1ccc([S+](c2cccc3ccccc23)c2cccc3ccccc23)cc1 [(b′-01), di(1-naphthyl)phenylsulfonium nonafluorobutane sulfonate] | – | – | – | 5 % by weight | 5 % by weight | <2 % by weight |
| Cc1cc(-[s+]2c3ccccc3c3ccccc32)cc(C)c1OC(=O)OC(C)(C)C [Compound (b1-81)] | – | – | – | 20 % by weight | 20 % by weight | 10 % by weight |
| Cc1cc(-[s+]2c3ccccc3c3ccccc32)cc(C)c1OCOC1CCCCC1 [b1-100] | >30 | >30 % by weight | >30 % by weight | – | – | – |

Other lines, results leading:

| Solubility in EL (% by weight) (Table 8) | Solubility in PGME (% by weight) (Table 8) | Solubility in PGMEA (% by weight) (Table 8) | Solubility in EL (% by weight) (Table 1) | Solubility in PGMEA (% by weight) (Table 1) | Solubility in PGME (% by weight) [1] | SMILES |
| --- | --- | --- | --- | --- | --- | --- |
| 20.0 | 20.0 % by weight | 10~15 % by weight | – | – | – | c1ccc(-[s+]2c3ccccc3c3ccccc32)cc1 [(2)] |
| – | – | – | 20 % by weight | 20 % by weight | 10-15 % by weight | c1ccc(-[s+]2c3ccccc3c3ccccc32)cc1 [(b1-01), phenyldibenzothiophenium nonafluorobutane sulfonate] |
| – | 10~15 % by weight | – | 10-15 % by weight | 10-15 % by weight | <2 % by weight | Cc1cc(-[s+]2c3ccccc3c3ccccc32)cc(C)c1O [Compound (b1-51)] |
